Assays:
[1] = target: T1, juvenile hormone-binding protein (JHBP) (Bombyx mori, UniProt Q9U556); experiment: radioligand competition with 3H-JH III (dextran-coated charcoal)
T1 construct: gene hJHBP; recombinant mature JHBP

[2] = target: T1, juvenile hormone-binding protein (JHBP); experiment: crystal structure ([…] Å); competition with 3H-JH III (charcoal assay)

Compound | IC50 [1] [µM] | IC50 [2] [µM]
COC(C)(C)CCC[C@H](C)C/C=C/C(C)=C/C(=O)OC(C)C (racemic) [methoprene] | 35 | –
CC(O)CC(C)(C)O (racemic) [MPD, 2-methyl-2,4-pentanediol] | – | 160

From publication PMC3577830, “Crystal Structure of Silkworm Bombyx mori JHBP in Complex With 2-Methyl-2,4-Pentanediol: Plasticity of JH-Binding Pocket and Ligand-Induced Conformational Change of the Second Cavity in JHBP” (PLoS ONE, 2013)
